Measurements published in patent US12391648B2, “Pyridyloxy thioester derivative and preparation method therefor, herbicidal composition, and application” (Qingdao Kingagroot Chemical Compound Co., Ltd., priority 2018, dated 2025).

These compounds were tested on Abutilon theophrasti (assay: Post-emergence test experiment (Table 3, 1000 g/ha)). Details: post-emergence spray, after 3 weeks, fresh weight inhibition.
Type: in vivo
Summary of the method: (§1)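 Weed seeds sown in soil-filled pots in greenhouse, sprayed at 2-3 leaf stage (2 weeks after sowing) with compound in acetone/tween-80 plus methyl oleate emulsible concentrate (1.5 L/ha) diluted in water. Fresh-weight growth inhibition scored after 3 weeks on 0-5 scale (5: >85%, 0: <5%).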

SMILES	Activity level (growth inhibition rate) Abutilon theophrasti
CSC(=O)C(C)Oc1nc(Cl)c(C2CC2)c(N)c1Cl (stereo not drawn) [Compound 10]	5 (Level 5: the growth inhibition rate is greater than 85%)
CSC(=O)C(C)Oc1nc(F)c(F)c(N)c1F (stereo not drawn) [Compound 1]	5 (Level 5: the growth inhibition rate is greater than 85%)
CC(Oc1nc(F)c(Cl)c(N)c1Cl)C(=O)Sc1ccn(C)n1 (stereo not drawn) [Compound 118]	5 (Level 5: the growth inhibition rate is greater than 85%)
CSC(=O)C(C)Oc1nc(F)c(Cl)c(NC(=O)c2ccccc2)c1Cl (stereo not drawn) [Compound 131]	5 (Level 5: the growth inhibition rate is greater than 85%)
CC(Oc1nc(F)c(Cl)c(N)c1Cl)C(=O)Sc1ccc(C(F)(F)F)cc1 (stereo not drawn) [Compound 112]	5 (Level 5: the growth inhibition rate is greater than 85%)
CCCCCCSC(=O)C(C)Oc1nc(F)c(Cl)c(N)c1Cl (stereo not drawn) [Compound 72]	5 (Level 5: the growth inhibition rate is greater than 85%)
CC(Oc1nc(F)c(Cl)c(N)c1Cl)C(=O)Sc1cn(C)cn1 (stereo not drawn) [Compound 123]	5 (Level 5: the growth inhibition rate is greater than 85%)
CSC(=O)C(C)Oc1nc(I)c(Cl)c(N)c1Cl (stereo not drawn) [Compound 17]	5 (Level 5: the growth inhibition rate is greater than 85%)
CCCCCCCCCCCSC(=O)C(C)Oc1nc(F)c(Cl)c(N)c1Cl (stereo not drawn) [Compound 142]	5 (Level 5: the growth inhibition rate is greater than 85%)
CC(Oc1nc(F)c(Cl)c(N)c1Cl)C(=O)SC1CCCO1 (stereo not drawn) [Compound 106]	5 (Level 5: the growth inhibition rate is greater than 85%)
Cc1ccccc1SC(=O)C(C)Oc1nc(F)c(Cl)c(N)c1Cl (stereo not drawn) [Compound 108]	5 (Level 5: the growth inhibition rate is greater than 85%)
CCc1c(OC(C)C(=O)SC)nc(C(F)(F)F)c(CC)c1N (stereo not drawn) [Compound 8]	5 (Level 5: the growth inhibition rate is greater than 85%)
CCCCSC(=O)C(C)Oc1nc(F)c(Cl)c(N)c1Cl (stereo not drawn) [Compound 70]	5 (Level 5: the growth inhibition rate is greater than 85%)

These compounds were tested on Digitaria sanguinalis in the same assay as above. Details: post-emergence spray, after 3 weeks, fresh weight inhibition.
Type: in vivo
Summary of the method: as §1

SMILES	Activity level (growth inhibition rate) Digitaria sanguinalis
CSC(=O)C(C)Oc1nc(Cl)c(C2CC2)c(N)c1Cl (stereo not drawn) [Compound 10]	5 (Level 5: the growth inhibition rate is greater than 85%)
CSC(=O)C(C)Oc1nc(F)c(F)c(N)c1F (stereo not drawn) [Compound 1]	5 (Level 5: the growth inhibition rate is greater than 85%)
CC(Oc1nc(F)c(Cl)c(N)c1Cl)C(=O)Sc1ccn(C)n1 (stereo not drawn) [Compound 118]	5 (Level 5: the growth inhibition rate is greater than 85%)
CSC(=O)C(C)Oc1nc(F)c(Cl)c(NC(=O)c2ccccc2)c1Cl (stereo not drawn) [Compound 131]	5 (Level 5: the growth inhibition rate is greater than 85%)
CC(Oc1nc(F)c(Cl)c(N)c1Cl)C(=O)Sc1ccc(C(F)(F)F)cc1 (stereo not drawn) [Compound 112]	5 (Level 5: the growth inhibition rate is greater than 85%)
CCCCCCSC(=O)C(C)Oc1nc(F)c(Cl)c(N)c1Cl (stereo not drawn) [Compound 72]	5 (Level 5: the growth inhibition rate is greater than 85%)
CC(Oc1nc(F)c(Cl)c(N)c1Cl)C(=O)Sc1cn(C)cn1 (stereo not drawn) [Compound 123]	5 (Level 5: the growth inhibition rate is greater than 85%)
CSC(=O)C(C)Oc1nc(I)c(Cl)c(N)c1Cl (stereo not drawn) [Compound 17]	5 (Level 5: the growth inhibition rate is greater than 85%)
CCCCCCCCCCCSC(=O)C(C)Oc1nc(F)c(Cl)c(N)c1Cl (stereo not drawn) [Compound 142]	5 (Level 5: the growth inhibition rate is greater than 85%)
CC(Oc1nc(F)c(Cl)c(N)c1Cl)C(=O)SC1CCCO1 (stereo not drawn) [Compound 106]	5 (Level 5: the growth inhibition rate is greater than 85%)
Cc1ccccc1SC(=O)C(C)Oc1nc(F)c(Cl)c(N)c1Cl (stereo not drawn) [Compound 108]	5 (Level 5: the growth inhibition rate is greater than 85%)
CCc1c(OC(C)C(=O)SC)nc(C(F)(F)F)c(CC)c1N (stereo not drawn) [Compound 8]	5 (Level 5: the growth inhibition rate is greater than 85%)
CCCCSC(=O)C(C)Oc1nc(F)c(Cl)c(N)c1Cl (stereo not drawn) [Compound 70]	5 (Level 5: the growth inhibition rate is greater than 85%)

These compounds were tested on Galium spurium in the same assay as above. Details: post-emergence spray, after 3 weeks, fresh weight inhibition.
Type: in vivo
Summary of the method: as §1

SMILES	Activity level (growth inhibition rate) Galium spurium
CSC(=O)C(C)Oc1nc(Cl)c(C2CC2)c(N)c1Cl (stereo not drawn) [Compound 10]	5 (Level 5: the growth inhibition rate is greater than 85%)
CSC(=O)C(C)Oc1nc(F)c(F)c(N)c1F (stereo not drawn) [Compound 1]	5 (Level 5: the growth inhibition rate is greater than 85%)
CC(Oc1nc(F)c(Cl)c(N)c1Cl)C(=O)Sc1ccn(C)n1 (stereo not drawn) [Compound 118]	5 (Level 5: the growth inhibition rate is greater than 85%)
CSC(=O)C(C)Oc1nc(F)c(Cl)c(NC(=O)c2ccccc2)c1Cl (stereo not drawn) [Compound 131]	5 (Level 5: the growth inhibition rate is greater than 85%)
CC(Oc1nc(F)c(Cl)c(N)c1Cl)C(=O)Sc1ccc(C(F)(F)F)cc1 (stereo not drawn) [Compound 112]	5 (Level 5: the growth inhibition rate is greater than 85%)
CCCCCCSC(=O)C(C)Oc1nc(F)c(Cl)c(N)c1Cl (stereo not drawn) [Compound 72]	5 (Level 5: the growth inhibition rate is greater than 85%)
CC(Oc1nc(F)c(Cl)c(N)c1Cl)C(=O)Sc1cn(C)cn1 (stereo not drawn) [Compound 123]	5 (Level 5: the growth inhibition rate is greater than 85%)
CSC(=O)C(C)Oc1nc(I)c(Cl)c(N)c1Cl (stereo not drawn) [Compound 17]	5 (Level 5: the growth inhibition rate is greater than 85%)
CCCCCCCCCCCSC(=O)C(C)Oc1nc(F)c(Cl)c(N)c1Cl (stereo not drawn) [Compound 142]	5 (Level 5: the growth inhibition rate is greater than 85%)
CC(Oc1nc(F)c(Cl)c(N)c1Cl)C(=O)SC1CCCO1 (stereo not drawn) [Compound 106]	5 (Level 5: the growth inhibition rate is greater than 85%)
Cc1ccccc1SC(=O)C(C)Oc1nc(F)c(Cl)c(N)c1Cl (stereo not drawn) [Compound 108]	5 (Level 5: the growth inhibition rate is greater than 85%)
CCc1c(OC(C)C(=O)SC)nc(C(F)(F)F)c(CC)c1N (stereo not drawn) [Compound 8]	5 (Level 5: the growth inhibition rate is greater than 85%)
CCCCSC(=O)C(C)Oc1nc(F)c(Cl)c(N)c1Cl (stereo not drawn) [Compound 70]	5 (Level 5: the growth inhibition rate is greater than 85%)

What follows are compounds tested on Leptochloa chinensis in the same assay as above. Details: post-emergence spray, after 3 weeks, fresh weight inhibition.
Type: in vivo
Summary of the method: as §1

SMILES	Activity level (growth inhibition rate) Leptochloa chinensis
CSC(=O)C(C)Oc1nc(Cl)c(C2CC2)c(N)c1Cl (stereo not drawn) [Compound 10]	5 (Level 5: the growth inhibition rate is greater than 85%)
CSC(=O)C(C)Oc1nc(F)c(F)c(N)c1F (stereo not drawn) [Compound 1]	5 (Level 5: the growth inhibition rate is greater than 85%)
CC(Oc1nc(F)c(Cl)c(N)c1Cl)C(=O)Sc1ccn(C)n1 (stereo not drawn) [Compound 118]	5 (Level 5: the growth inhibition rate is greater than 85%)
CSC(=O)C(C)Oc1nc(F)c(Cl)c(NC(=O)c2ccccc2)c1Cl (stereo not drawn) [Compound 131]	5 (Level 5: the growth inhibition rate is greater than 85%)
CC(Oc1nc(F)c(Cl)c(N)c1Cl)C(=O)Sc1ccc(C(F)(F)F)cc1 (stereo not drawn) [Compound 112]	5 (Level 5: the growth inhibition rate is greater than 85%)
CCCCCCSC(=O)C(C)Oc1nc(F)c(Cl)c(N)c1Cl (stereo not drawn) [Compound 72]	5 (Level 5: the growth inhibition rate is greater than 85%)
CC(Oc1nc(F)c(Cl)c(N)c1Cl)C(=O)Sc1cn(C)cn1 (stereo not drawn) [Compound 123]	5 (Level 5: the growth inhibition rate is greater than 85%)
CSC(=O)C(C)Oc1nc(I)c(Cl)c(N)c1Cl (stereo not drawn) [Compound 17]	5 (Level 5: the growth inhibition rate is greater than 85%)
CCCCCCCCCCCSC(=O)C(C)Oc1nc(F)c(Cl)c(N)c1Cl (stereo not drawn) [Compound 142]	5 (Level 5: the growth inhibition rate is greater than 85%)
CC(Oc1nc(F)c(Cl)c(N)c1Cl)C(=O)SC1CCCO1 (stereo not drawn) [Compound 106]	5 (Level 5: the growth inhibition rate is greater than 85%)
Cc1ccccc1SC(=O)C(C)Oc1nc(F)c(Cl)c(N)c1Cl (stereo not drawn) [Compound 108]	5 (Level 5: the growth inhibition rate is greater than 85%)
CCc1c(OC(C)C(=O)SC)nc(C(F)(F)F)c(CC)c1N (stereo not drawn) [Compound 8]	5 (Level 5: the growth inhibition rate is greater than 85%)
CCCCSC(=O)C(C)Oc1nc(F)c(Cl)c(N)c1Cl (stereo not drawn) [Compound 70]	5 (Level 5: the growth inhibition rate is greater than 85%)

What follows are compounds tested on Monochoria vaginalis in the same assay as above. Details: post-emergence spray, after 3 weeks, fresh weight inhibition.
Type: in vivo
Summary of the method: as §1

SMILES	Activity level (growth inhibition rate) Monochoria Vaginalis
CSC(=O)C(C)Oc1nc(Cl)c(C2CC2)c(N)c1Cl (stereo not drawn) [Compound 10]	5 (Level 5: the growth inhibition rate is greater than 85%)
CSC(=O)C(C)Oc1nc(F)c(F)c(N)c1F (stereo not drawn) [Compound 1]	5 (Level 5: the growth inhibition rate is greater than 85%)
CC(Oc1nc(F)c(Cl)c(N)c1Cl)C(=O)Sc1ccn(C)n1 (stereo not drawn) [Compound 118]	5 (Level 5: the growth inhibition rate is greater than 85%)
CSC(=O)C(C)Oc1nc(F)c(Cl)c(NC(=O)c2ccccc2)c1Cl (stereo not drawn) [Compound 131]	5 (Level 5: the growth inhibition rate is greater than 85%)
CC(Oc1nc(F)c(Cl)c(N)c1Cl)C(=O)Sc1ccc(C(F)(F)F)cc1 (stereo not drawn) [Compound 112]	5 (Level 5: the growth inhibition rate is greater than 85%)
CCCCCCSC(=O)C(C)Oc1nc(F)c(Cl)c(N)c1Cl (stereo not drawn) [Compound 72]	5 (Level 5: the growth inhibition rate is greater than 85%)
CC(Oc1nc(F)c(Cl)c(N)c1Cl)C(=O)Sc1cn(C)cn1 (stereo not drawn) [Compound 123]	5 (Level 5: the growth inhibition rate is greater than 85%)
CSC(=O)C(C)Oc1nc(I)c(Cl)c(N)c1Cl (stereo not drawn) [Compound 17]	5 (Level 5: the growth inhibition rate is greater than 85%)
CCCCCCCCCCCSC(=O)C(C)Oc1nc(F)c(Cl)c(N)c1Cl (stereo not drawn) [Compound 142]	5 (Level 5: the growth inhibition rate is greater than 85%)
CC(Oc1nc(F)c(Cl)c(N)c1Cl)C(=O)SC1CCCO1 (stereo not drawn) [Compound 106]	5 (Level 5: the growth inhibition rate is greater than 85%)
Cc1ccccc1SC(=O)C(C)Oc1nc(F)c(Cl)c(N)c1Cl (stereo not drawn) [Compound 108]	5 (Level 5: the growth inhibition rate is greater than 85%)
CCc1c(OC(C)C(=O)SC)nc(C(F)(F)F)c(CC)c1N (stereo not drawn) [Compound 8]	5 (Level 5: the growth inhibition rate is greater than 85%)
CCCCSC(=O)C(C)Oc1nc(F)c(Cl)c(N)c1Cl (stereo not drawn) [Compound 70]	5 (Level 5: the growth inhibition rate is greater than 85%)

What follows are compounds tested on Setaria viridis in the same assay as above. Details: post-emergence spray, after 3 weeks, fresh weight inhibition.
Type: in vivo
Summary of the method: as §1

SMILES	Activity level (growth inhibition rate) Setaria viridis
CSC(=O)C(C)Oc1nc(Cl)c(C2CC2)c(N)c1Cl (stereo not drawn) [Compound 10]	5 (Level 5: the growth inhibition rate is greater than 85%)
CSC(=O)C(C)Oc1nc(F)c(F)c(N)c1F (stereo not drawn) [Compound 1]	5 (Level 5: the growth inhibition rate is greater than 85%)
CC(Oc1nc(F)c(Cl)c(N)c1Cl)C(=O)Sc1ccn(C)n1 (stereo not drawn) [Compound 118]	5 (Level 5: the growth inhibition rate is greater than 85%)
CSC(=O)C(C)Oc1nc(F)c(Cl)c(NC(=O)c2ccccc2)c1Cl (stereo not drawn) [Compound 131]	5 (Level 5: the growth inhibition rate is greater than 85%)
CC(Oc1nc(F)c(Cl)c(N)c1Cl)C(=O)Sc1ccc(C(F)(F)F)cc1 (stereo not drawn) [Compound 112]	5 (Level 5: the growth inhibition rate is greater than 85%)
CCCCCCSC(=O)C(C)Oc1nc(F)c(Cl)c(N)c1Cl (stereo not drawn) [Compound 72]	5 (Level 5: the growth inhibition rate is greater than 85%)
CC(Oc1nc(F)c(Cl)c(N)c1Cl)C(=O)Sc1cn(C)cn1 (stereo not drawn) [Compound 123]	5 (Level 5: the growth inhibition rate is greater than 85%)
CSC(=O)C(C)Oc1nc(I)c(Cl)c(N)c1Cl (stereo not drawn) [Compound 17]	5 (Level 5: the growth inhibition rate is greater than 85%)
CCCCCCCCCCCSC(=O)C(C)Oc1nc(F)c(Cl)c(N)c1Cl (stereo not drawn) [Compound 142]	5 (Level 5: the growth inhibition rate is greater than 85%)
CC(Oc1nc(F)c(Cl)c(N)c1Cl)C(=O)SC1CCCO1 (stereo not drawn) [Compound 106]	5 (Level 5: the growth inhibition rate is greater than 85%)
Cc1ccccc1SC(=O)C(C)Oc1nc(F)c(Cl)c(N)c1Cl (stereo not drawn) [Compound 108]	5 (Level 5: the growth inhibition rate is greater than 85%)
CCc1c(OC(C)C(=O)SC)nc(C(F)(F)F)c(CC)c1N (stereo not drawn) [Compound 8]	5 (Level 5: the growth inhibition rate is greater than 85%)
CCCCSC(=O)C(C)Oc1nc(F)c(Cl)c(N)c1Cl (stereo not drawn) [Compound 70]	5 (Level 5: the growth inhibition rate is greater than 85%)
